Assays:
Pmel T cells = assay: Golgi stress (monensin, H2O2, thapsigargin) in Pmel T cells: GM130, ROS, Golgi dispersion; type: cell-based, mouse; design: cell death / mitochondrial ROS / monensin-induced cell death and mitochondrial ROS accumulation / ER stress (p-PERK): dose or concentration left out as unconfirmed
Procedure: (FIG. 21A) Levels of intracellular glutathione assessed using FACS by employing ThiolTracker Violet dye in control CD19 CAR-T cells or CAR-T cells overexpressing Cbs (CbstdCD19-CAR-T) (n=3). (FIG. 21B) 12 hour Thapsigargin (700 nM) treatment was used to induce ER stress in WT T cells, Cbs-KO T cells, and Cbs-KO T cells+H2S. Levels of phosphorylated PERK were assessed by FACS (n=3). (FIG. 21C) Pmel T cells were treated with either Thapsigargin (700 nM) or Monensin (1 mM) for 12 hours, followed by staining for phosphorylated PERK (p-PERK) and GM130 to assess ER stress and Golgi stress, respectively (n=4). (FIG. 21D) Activated Pmel T cells were treated for 12 hours with either vehicle control or 1 mM Monensin (“+Golgi stress”) before being stained for giantin to assess Golgi dispersion. […] (FIG. 21E) Representative confocal microscopy images of mitochondria (Tom20) and Golgi (giantin) in human PBMCs treated with vehicle control or 0.5 mM GYY4137.
T cells were stained with conjugated for surface markers as described in the figure legends followed by fixation and permeabilization with BD Cytofix/Cytoperm Kit (BD Biosciences, 554722). The Golgi was labeled using anti-Giantin antibody (Abcam, ab80864) as the primary antibody followed by secondary antibody staining with anti-Rabbit IgG conjugated to Alexa Fluor 488 (ab150077). The cells were then imaged using ImageStreamX mark II imaging flow-cytometer and analyzed using IDEAS 6.2. Spectral overlap was compensated for using single-stain controls. Image analysis for Golgi area was performed using the protocol established by Eisenberg-Lerner et al.44 First, cells were gated on single cells using the area and aspect ratio features, and then gated on focused cells using the Gradient RMS feature. Golgi area was calculated using the anti-Giantin fluorescence signaling, using on the Threshold_50 mask that includes the 50% highest intensity pixels of the Golgi staining, with a mask defined as Area Threshold 50 was considered as the Golgi area to compare between the relevant conditions.

Sirt1 = details: H2S-treated vs control T cells
Procedure: (FIG. 18C) NAD+ and nicotinamide quantification from metabolomics dataset. (FIG. 18D) SIRT1 deacetylase activity in activated Pmel T cells (means of normalized OD values). (FIGS. 18E and 18F) Pmel T cells were activated with gp100 for 3 days in the presence of vehicle, GYY4137 (0.5 mM), or GYY4137+sirt1 inhibitor EX527 (10 μM). (FIG. 18E) Nuclear and cytoplasmic protein fractions were isolated and western blot analysis was performed to determine relative expression of nuclear and cytoplasmic Foxo1 (n=3). (FIG. 18F) Expression of CD62L and CD44 analyzed by FACS (n=3). (FIG. 18G) Splenocytes from wildtype and Cbs-knockout mice+/−GYY4137 activated with anti-CD3 and anti-CD28 antibodies followed by intranuclear staining for Foxo1. (FIG. 18H) Pmel T cells activated and expanded for metabolic flux analysis. Quantification of oxygen consumption rate (OCR), spare respiratory capacity (SRC), maximal respiration, and basal respiration (n=10 experimental replicates representative of 3 separate experiments). (FIG. 18I) Pmel T cells activated and expanded to day 5 for characterization of mitochondria using FACS, quantified by MFI values for mitoFM Deep Red, TMRM, and mitoSOX dyes (n=4). […] Shown is the quantification of mean oxygen consumption rate (OCR), spare respiratory capacity (SRC), maximal respiration, and basal respiration.

Question: What does the source list for C1COCCN1.COc1ccc(P(=S)(S)N2CCOCC2)cc1 (stereo not shown) [GYY4137]?
Answer: monensin-induced ROS (DCFDA) (Pmel T cells; 1 mM monensin with H2S treatment): mitigated; H2O2-mediated changes in Golgi stress (GM130 levels) (Pmel T cells; 50 mM H2O2 (6-hours)): mitigated; monensin-induced cell death and mitochondrial ROS accumulation (Pmel T cells; monensin in presence of H2S): partially mitigated; Sirt1 activity (Sirt1): increased Sirt1 activity

Source: patent US20250170239A1, “CELLULAR REPROGRAMMING BY TARGETING THE GOLGI APPARATUS” (MUSC Foundation for Research Development, priority 2023, published 2025)
